# How the values were obtained:
# [1] = target: T1, hT1R2/hT1R3 sweet receptor expressed in an HEK293 cell line (Homo sapiens, UniProt Q7RTX0+Q8TE23); assay: In vitro hT1R2/hT1R3 sweet taste receptor activation assay (FLIPR, dose response); type: cell-based; conditions: read-out: EC50 for activation of a hT1R2/hT1R3 sweet receptor
# T1 construct: expressed in transfected cells; host or cells: HEK293 derivative, clone S-9
# T1 sequence (Q8TE23 20-839): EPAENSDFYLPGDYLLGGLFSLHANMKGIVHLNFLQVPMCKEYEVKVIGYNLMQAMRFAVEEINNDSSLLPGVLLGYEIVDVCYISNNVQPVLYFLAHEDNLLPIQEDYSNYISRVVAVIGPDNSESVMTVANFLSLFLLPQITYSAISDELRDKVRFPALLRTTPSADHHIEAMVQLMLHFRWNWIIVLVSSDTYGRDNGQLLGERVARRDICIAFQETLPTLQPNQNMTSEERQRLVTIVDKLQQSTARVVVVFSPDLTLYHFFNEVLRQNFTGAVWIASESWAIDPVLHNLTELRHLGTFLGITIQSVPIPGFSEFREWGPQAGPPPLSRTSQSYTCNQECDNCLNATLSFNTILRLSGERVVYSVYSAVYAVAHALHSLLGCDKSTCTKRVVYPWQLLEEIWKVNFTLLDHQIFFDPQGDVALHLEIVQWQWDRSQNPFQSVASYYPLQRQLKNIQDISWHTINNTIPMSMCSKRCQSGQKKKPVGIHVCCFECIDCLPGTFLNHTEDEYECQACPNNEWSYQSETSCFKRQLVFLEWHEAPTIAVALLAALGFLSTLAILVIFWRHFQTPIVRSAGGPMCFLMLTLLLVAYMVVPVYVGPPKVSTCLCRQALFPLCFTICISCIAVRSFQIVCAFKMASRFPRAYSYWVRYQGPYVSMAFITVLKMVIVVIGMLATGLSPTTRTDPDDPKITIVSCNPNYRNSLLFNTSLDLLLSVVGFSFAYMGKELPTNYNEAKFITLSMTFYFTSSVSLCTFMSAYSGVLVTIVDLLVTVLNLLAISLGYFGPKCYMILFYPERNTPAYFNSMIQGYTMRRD
# T1 sequence (Q7RTX0 21-852): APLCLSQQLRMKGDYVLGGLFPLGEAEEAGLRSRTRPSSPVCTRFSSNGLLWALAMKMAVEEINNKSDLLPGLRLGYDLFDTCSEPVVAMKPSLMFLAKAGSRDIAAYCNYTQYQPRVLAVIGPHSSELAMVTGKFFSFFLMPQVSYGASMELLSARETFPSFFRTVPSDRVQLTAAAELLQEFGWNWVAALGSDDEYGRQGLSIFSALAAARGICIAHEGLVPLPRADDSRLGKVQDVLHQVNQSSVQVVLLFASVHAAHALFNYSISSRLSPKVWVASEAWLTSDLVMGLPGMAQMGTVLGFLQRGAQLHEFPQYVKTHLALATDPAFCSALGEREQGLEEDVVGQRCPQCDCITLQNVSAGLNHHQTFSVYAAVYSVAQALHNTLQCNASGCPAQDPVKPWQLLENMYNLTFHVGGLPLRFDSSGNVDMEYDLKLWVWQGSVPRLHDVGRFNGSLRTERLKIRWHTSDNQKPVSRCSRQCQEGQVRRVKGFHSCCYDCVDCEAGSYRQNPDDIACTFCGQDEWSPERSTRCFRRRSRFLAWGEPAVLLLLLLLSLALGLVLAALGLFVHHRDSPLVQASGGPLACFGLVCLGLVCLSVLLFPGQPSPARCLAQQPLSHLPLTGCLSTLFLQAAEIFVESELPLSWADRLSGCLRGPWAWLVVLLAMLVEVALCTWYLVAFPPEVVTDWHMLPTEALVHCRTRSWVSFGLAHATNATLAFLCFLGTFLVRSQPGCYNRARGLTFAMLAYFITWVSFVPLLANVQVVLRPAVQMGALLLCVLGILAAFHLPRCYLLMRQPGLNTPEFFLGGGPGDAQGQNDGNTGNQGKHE
# Source text: An HEK293 cell line derivative (see Chandrashekar, J., Mueller, K. L., Hoon, M. A., Adler, E., Feng, L., Guo, W., Zuker, C. S., Ryba, N. J.,. Cel,l 2000, 100, 703-711.) that stably expresses Gα15 and hT1R2/hT1R3 (see Li, X., Staszewski, L., Xu, H., Durick, K., Zoller, M., Adler, E. Proc Natl Acad Sci USA 2002, 99, 4692-4696, and PCT Publication No. WO 03/001876) was used to identify compounds with sweet taste enhancing properties. These references are hereby incorporated herein by reference for their methods of preparing and maintaing the cell lines discussed below, and for their methods for screeing compounds that inhibit the biological receptors.
# Compounds covered in this document were initially selected based on their activity on the hT1R2/hT1R3—HEK293-Gα15 cell line (Li, et al. vide supra). Activity was determined using an automated fluorometric imaging assay on a FLIPR instrument (Fluorometric Intensity Plate Reader, Molecular Devices, Sunnyvale, Calif.) (designated FLIPR assay). Cells from one clone (designated S-9 cells) were seeded into 384-well plates (at approximately 50,000 cells per well) in a medium containing DMEM Low Glucose (Invitrogen, Carlsbad, Calif.), 10% dialyzed fetal bovine serum (Invitrogen, Carlsbad, Calif.), 100 Units/ml Penicillin G, and 100 μg/ml Streptomycin (Invitrogen, Carlsbad, Calif.) (Li, et al. vide supra) see also World Patent No. WO 03/001876 A2). S-9 cells were grown for 24 hours at 37° C. S-9 cells were then loaded with the calcium dye Fluo-3AM (Molecular Probes, Eugene, Oreg.), 4 μM in a phosphate buffered saline (D-PBS) (Invitrogen, Carlsbad, Calif.), for 1 hour at room temperature. After replacement with 25 μl D-PBS, stimulation was performed in the FLIPR instrument and at room temperature by the addition of 25 μl D-PBS supplemented with different stimuli at concentrations corresponding to twice the desired final level. Receptor activity was quantified by determining the maximal fluorescence increases (using a 480 nm excitation and 535 nm emission) after normalization to basal fluorescence intensity measured before stimulation.
# For dose-responses analysis, stimuli were presented in duplicates at 10 different concentrations ranging from 60 nM to 30 μM. Activities were normalized to the response obtained with 400 mM D-fructose, a concentration that elicits maximum receptor response. EC50s were determined using a non-linear regression algorithm (using a Senomyx, Inc. software), where the Hill slope, bottom asymptotes and top asymptotes were allow to vary. Identical results were obtained when analyzing the dose-response data using commercially available software for non-linear regression analysis such as GraphPad PRISM (San Diego, Calif.).
melting point [°C],EC50 [1] [nM],Compound
89 to 90,230,"CC(C)Oc1ccc(NC(=S)NCc2ccoc2)cc1 [Example 4, 1-(furan-3-ylmethyl)-3-(4-isopropoxyphenyl)thiourea]"
80.5 to 81.5,150,"CC(C)Oc1ccc(NC(=S)NCc2ccsc2)cc1 [Example 3, 1-(4-Isopropoxyphenyl)-3-(thiophen-3-ylmethyl)thiourea]"
104 to 105,2980,"COc1ccc(CNc2ccccc2C)cc1O [Example 12, 5-((o-toluidino)methyl)-2-methoxyphenol]"
